Experimental data reported in PubChem BioAssay AID330 (DTP/NCI, 2004).
Several values for one entry are separate records, joined by “and”; a condition that tells them apart may be missing. Equal entries are not always repeated. Inconclusive results and toxic doses are left out.

System: P388 leukemia ip, CD2F1 mice, survival T/C
Experiment: NCI In Vivo Anticancer Drug Screen. Data for tumor model P388 Leukemia (intraperitoneal) in CD2F1 (CDF1) mice
Details: endpoint: median survival time, higher = longer survival
How it was run: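 Mice carrying the transplanted tumor received test compound or vehicle. Survival was recorded in each group, and the value is the treated-group measurement divided by that of the vehicle-treated control group.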

[1] = dose: 100.0 mg/kg/injection, schedule: Q01DX001 (ip), vehicle: Klucel (hydroxypropylcellulose) (HPC)
[2] = dose: 200.0 mg/kg/injection, schedule: Q01DX001 (ip), vehicle: Klucel (hydroxypropylcellulose) (HPC)
[3] = dose: 400.0 mg/kg/injection, schedule: Q01DX001 (ip), vehicle: Klucel (hydroxypropylcellulose) (HPC)
[4] = dose: 50.0 mg/kg/injection, schedule: Q01DX009 (ip), vehicle: saline with Tween-80
[5] = dose: 100.0 mg/kg/injection, schedule: Q01DX009 (ip), vehicle: saline with Tween-80
[6] = dose: 60.0 mg/kg/injection, schedule: Q01DX005 (ip), vehicle: saline with Tween-80
[7] = dose: 50.0 mg/kg/injection, schedule: Q01DX005 (ip), vehicle: saline with Tween-80
[8] = dose: 100.0 mg/kg/injection, schedule: Q01DX005 (ip), vehicle: saline with Tween-80
[9] = dose: 200.0 mg/kg/injection, schedule: Q01DX005 (ip), vehicle: saline with Tween-80
[10] = dose: 120.0 mg/kg/injection, schedule: Q01DX005 (ip), vehicle: saline with Tween-80
[11] = dose: 240.0 mg/kg/injection, schedule: Q01DX005 (ip), vehicle: saline with Tween-80
[12] = dose: 50.0 mg/kg/injection, schedule: Q01DX009 (ip), vehicle: Klucel (hydroxypropylcellulose) (HPC)
[13] = dose: 100.0 mg/kg/injection, schedule: Q01DX009 (ip), vehicle: Klucel (hydroxypropylcellulose) (HPC)
[14] = dose: 200.0 mg/kg/injection, schedule: Q01DX009 (ip), vehicle: Klucel (hydroxypropylcellulose) (HPC)
[15] = dose: 50.0 mg/kg/injection, schedule: Q04DX003 (ip), vehicle: saline with Tween-80
[16] = dose: 100.0 mg/kg/injection, schedule: Q04DX003 (ip), vehicle: saline with Tween-80
[17] = dose: 200.0 mg/kg/injection, schedule: Q01DX009 (ip), vehicle: saline with Tween-80
[18] = dose: 100.0 mg/kg/injection, schedule: Q04DX003 (ip), vehicle: Klucel (hydroxypropylcellulose) (HPC)
[19] = dose: 200.0 mg/kg/injection, schedule: Q04DX003 (ip), vehicle: Klucel (hydroxypropylcellulose) (HPC)

For `CC(C)(C)c1ccc(S(=O)(=O)C[CH2][Sn]([CH3])([CH3])[CH3])cc1`, the T/C (dose: 6.25 mg/kg/injection, schedule: Q01DX009 (ip), vehicle: saline) was 104 % of control and the T/C (dose: 12.5 mg/kg/injection, schedule: Q01DX009 (ip), vehicle: saline) was 87 % of control.

With `O=C(O)C(CS)NCCNC(CS)C(=O)O` (stereo unspecified) the T/C (dose: 12.5 mg/kg/injection, schedule: Q01DX001 (ip), vehicle: Klucel (hydroxypropylcellulose) (HPC)) was 97 % of control and the T/C (dose: 25.0 mg/kg/injection, schedule: Q01DX001 (ip), vehicle: Klucel (hydroxypropylcellulose) (HPC)) was 97 % of control.

For `CCCCCCCCCCCCCCCC(=O)NCCO`, the T/C (dose: 33.0 mg/kg/injection, schedule: Q04DX003 (ip), vehicle: saline with Tween-80) was 91 % of control and the T/C (dose: 75.0 mg/kg/injection, schedule: Q04DX003 (ip), vehicle: saline with Tween-80) was 87 % of control.

In the case of `CN(C)CCNC(=O)c1ccc(C(=O)NCCN(C)C)c2c(C(=O)NCCN(C)C)ccc(C(=O)NCCN(C)C)c12`, the T/C (dose: 1.56 mg/kg/injection, schedule: Q01DX005 (ip), vehicle: saline with Tween-80) is reported as 100 % of control, the T/C (dose: 3.13 mg/kg/injection, schedule: Q01DX005 (ip), vehicle: saline with Tween-80) is reported as 106 % of control and the T/C (dose: 6.25 mg/kg/injection, schedule: Q01DX005 (ip), vehicle: saline with Tween-80) is reported as 102 % of control and 109 % of control. For the same molecule, the T/C (dose: 12.5 mg/kg/injection, schedule: Q01DX005 (ip), vehicle: saline with Tween-80) was 108 % of control.

With `O=C(SCNS(=O)(=O)c1ccccc1)c1ccccc1` the T/C [1] was 111 % of control, the T/C [2] was 113 % of control and the T/C [3] was 114 % of control.

For `N#Cc1cc(Cl)ccc1[N+](=O)[O-]`, the T/C [4] was 102 % of control and the T/C [5] was 103 % of control.

In the case of `CSc1nnc2n(N)cnn12`, the T/C (dose: 100.0 mg/kg/injection, schedule: Q04DX002 (ip), vehicle: water) is reported as 107 % of control, the T/C (dose: 200.0 mg/kg/injection, schedule: Q04DX002 (ip), vehicle: water) is reported as 106 % of control and the T/C (dose: 400.0 mg/kg/injection, schedule: Q04DX002 (ip), vehicle: water) is reported as 106 % of control.

`CCCCCCCCC(=O)c1c(OC)oc(/C=N/O)cc1=O` was tested, and the T/C (dose: 12.5 mg/kg/injection, schedule: Q01DX009 (ip), vehicle: Klucel (hydroxypropylcellulose) (HPC)) was 87 % of control.

In the case of `C=C(C)C1CC2=C(C(=O)OC)C=C(O2)C(C(=C)C)C2C=C(C(=O)O2)C2OC12` (stereo unspecified), the T/C (dose: 12.5 mg/kg/injection, schedule: Q01DX005 (ip), vehicle: saline + alcohol) is reported as 99 % of control, the T/C (dose: 25.0 mg/kg/injection, schedule: Q01DX005 (ip), vehicle: saline + alcohol) is reported as 103 % of control and the T/C (dose: 50.0 mg/kg/injection, schedule: Q01DX005 (ip), vehicle: saline + alcohol) is reported as 97 % of control. The T/C (dose: 100.0 mg/kg/injection, schedule: Q01DX005 (ip), vehicle: saline + alcohol) was 108 % of control.

With `CCC(=O)c1c(O)c2ccccc2oc1=O` the T/C (dose: 15.0 mg/kg/injection, schedule: Q01DX005 (ip), vehicle: saline with Tween-80) was 104 % of control, the T/C (dose: 30.0 mg/kg/injection, schedule: Q01DX005 (ip), vehicle: saline with Tween-80) was 107 % of control and the T/C [6] was 104 % of control.

`COc1ccc(NC(=O)Nc2ccc(-c3ccc(NC(=O)Nc4ccc(OC)cc4)c(C)c3)cc2C)cc1` was tested, and the T/C (dose: 25.0 mg/kg/injection, schedule: Q01DX005 (ip), vehicle: saline with Tween-80) was 100 % of control, the T/C [7] was 87 % of control and 94 % of control and the T/C [8] was 91 % of control. The T/C [9] was 90 % of control.

With `COC(=O)C1(c2ccc(OC)cc2)NC(c2ccccc2)C2C(=O)N(c3ccc(OC)cc3)C(=O)C21` (stereo unspecified) the T/C [6] was 95 % of control, the T/C [10] was 96 % of control and the T/C [11] was 89 % of control.

For `N=C(N)c1cccc([N+](=O)[O-])c1`, the T/C (dose: 50.0 mg/kg/injection, schedule: Q01DX009 (ip), vehicle: saline) was 98 % of control and the T/C (dose: 100.0 mg/kg/injection, schedule: Q01DX009 (ip), vehicle: saline) was 96 % of control.

In the case of `Cc1ccc2c(c1)C1(SC(C)C(=O)N1c1ccc(I)cc1)C(=O)N2` (stereo unspecified), the T/C [6] is reported as 103 % of control, the T/C [10] is reported as 94 % of control and the T/C [11] is reported as 91 % of control.

For `CC1=NN(c2ccc(S(=O)(=O)O)cc2)C(=O)C1N=Nc1ccc(C)c(S(=O)(=O)Nc2ccccc2)c1` (stereo unspecified), the T/C [12] was 101 % of control, the T/C [13] was 99 % of control and the T/C [14] was 101 % of control.

In the case of `NC(=S)SCCC(=O)N1CCCCC1`, the T/C (dose: 25.0 mg/kg/injection, schedule: Q04DX002 (ip), vehicle: Klucel (hydroxypropylcellulose) (HPC)) is reported as 101 % of control, the T/C (dose: 50.0 mg/kg/injection, schedule: Q04DX002 (ip), vehicle: Klucel (hydroxypropylcellulose) (HPC)) is reported as 95 % of control and the T/C (dose: 100.0 mg/kg/injection, schedule: Q04DX002 (ip), vehicle: Klucel (hydroxypropylcellulose) (HPC)) is reported as 104 % of control and 95 % of control.

In the case of `Nc1nc2ccc(CNc3ccc(C(=O)NC(CCC(=O)O)C(=O)O)cc3)nc2c(=O)[nH]1` (stereo unspecified), the T/C [15] is reported as 102 % of control and the T/C [16] is reported as 155 % of control.

`COc1cc(C(O)CCBr)c(OC)cc1C` (stereo unspecified) was tested, and the T/C [6] was 100 % of control, the T/C [10] was 100 % of control and the T/C [11] was 95 % of control.

`CCOP(=O)(Nc1ccc(C)cc1)OCC` was tested, and the T/C (dose: 100.0 mg/kg/injection, schedule: Q01DX001 (ip), vehicle: saline) was 104 % of control, the T/C (dose: 200.0 mg/kg/injection, schedule: Q01DX001 (ip), vehicle: saline) was 109 % of control and the T/C (dose: 400.0 mg/kg/injection, schedule: Q01DX001 (ip), vehicle: saline) was 105 % of control.

For `Fc1ccc(-c2cc(-c3cccs3)cc(-c3ccccc3)n2)cc1`, the T/C [12] was 121 % of control, the T/C [13] was 102 % of control and the T/C [14] was 100 % of control.

`OCCCN1CCCCC1CO` (stereo unspecified) was tested, and the T/C [4] was 116 % of control and the T/C [17] was 150 % of control.

In the case of `CC1=C(C)C(=O)C(C(C)(C)CC(=O)n2cc(F)c(=O)[nH]c2=O)=C(C)C1=O`, the T/C (dose: 100.0 mg/kg/injection, schedule: Q01DX001 (ip), vehicle: saline with Tween-80) is reported as 111 % of control.

`CC1CN2COC(=S)SSSSC(=S)OCN3CC(C)N(COC(=S)SSSSC(=S)OCN1CC2C)CC3C` (stereo unspecified) was tested, and the T/C [7] was 99 % of control, the T/C [8] was 103 % of control and the T/C [9] was 106 % of control.

In the case of `CC1(Cl)C(=O)OC2CCC(O)C(O)C21` (stereo unspecified), the T/C [18] is reported as 101 % of control, the T/C [19] is reported as 102 % of control and the T/C (dose: 400.0 mg/kg/injection, schedule: Q04DX003 (ip), vehicle: Klucel (hydroxypropylcellulose) (HPC)) is reported as 106 % of control.

For `c1ccc(CN2CCC(N3CNc4ccccc43)CC2)cc1`, the T/C (dose: 25.0 mg/kg/injection, schedule: Q04DX003 (ip), vehicle: saline with Tween-80) was 109 % of control, the T/C [15] was 114 % of control and the T/C [16] was 88 % of control.

`CC(=O)N1C(=O)Cc2ccccc21` was tested, and the T/C [1] was 94 % of control, the T/C [2] was 90 % of control and the T/C [3] was 91 % of control.

In the case of `N#CC(C(=O)C(=O)Nc1cccc(C(F)(F)F)c1)c1ccccc1Cl` (stereo unspecified), the T/C [6] is reported as 102 % of control, the T/C [10] is reported as 97 % of control and the T/C [11] is reported as 99 % of control.

In the case of `CC(O)C(NC(=O)c1cnc(OCc2ccccc2)nc1N)C(=O)O` (stereo unspecified), the T/C (dose: 6.25 mg/kg/injection, schedule: Q01DX009 (ip), vehicle: saline with Tween-80) is reported as 100 % of control, the T/C (dose: 12.5 mg/kg/injection, schedule: Q01DX009 (ip), vehicle: saline with Tween-80) is reported as 100 % of control and the T/C (dose: 25.0 mg/kg/injection, schedule: Q01DX009 (ip), vehicle: saline with Tween-80) is reported as 90 % of control.

`C1CC2OC2CC1C1CO1` (stereo unspecified) was tested, and the T/C [5] was 104 % of control, the T/C (dose: 100.0 mg/kg/injection, schedule: Q04DX003 (ip), vehicle: saline sonified) was 100 % of control and the T/C [17] was 104 % of control. The T/C (dose: 200.0 mg/kg/injection, schedule: Q04DX003 (ip), vehicle: saline sonified) was 100 % of control and the T/C (dose: 400.0 mg/kg/injection, schedule: Q04DX003 (ip), vehicle: saline sonified) was 109 % of control.

In the case of `CCN(CC)CCNC`, the T/C (dose: 50.0 mg/kg/injection, schedule: Q01DX005 (ip), vehicle: saline) is reported as 99 % of control, the T/C (dose: 100.0 mg/kg/injection, schedule: Q01DX005 (ip), vehicle: saline) is reported as 95 % of control and the T/C (dose: 200.0 mg/kg/injection, schedule: Q01DX005 (ip), vehicle: saline) is reported as 98 % of control.

In the case of `CC1(C)CC(c2ccccc2)C(c2ccccc2)C(=O)O1` (stereo unspecified), the T/C [18] is reported as 93 % of control and the T/C [19] is reported as 92 % of control.
